Tests used:
[1] = test system: European red mite Panonychus ulmi; assay: Ovicide activity on European red mite eggs on beet leaf discs (Example 6); format: in vivo; settings: after 8 days; leaf discs immersed five seconds; oil 1.5%, meal 2 g l^−1, hexythiazox 50 mg p.a. l^−1
Method: Beet leaf discs measuring 60 mm were placed in a 90 mm diameter Petri dish and kept in a climatic cell at 24° C., 75% R.H. with 17 hours of light. Fifteen female mites were placed on each leaf disc to lay their eggs. The females were removed after 24 hours and the eggs were counted. Each group consisted of three leaf discs. The treatments were carried out with the “deep test” method: the leaf discs were immersed for five seconds in a suspension consisting of 1.5% vegetable oil, 1.5% vegetable oil+2 g l^−1 carinata meal, 1.5% UF mineral oil+2 g l^−1 carinata meal or the acaricide hexythiazox Matacar (Sipcam) at a dose of 50 mg p.a. I^−1. The control was immersed in water. The ovicide activity was assessed starting on the fourth day and every 2 days up to the eighth day, calculating the percentage of hatched eggs estimated indirectly by counting the live offspring.

Cacopsylla pyri = assay: Field test on pear lice (Example 11); format: in vivo
Method: Pear plants with a high level of lice infestation were treated on May 6 and 20 2006. […]

Row | Molecule | hatched eggs [1] [%] | surviving offspring (Cacopsylla pyri; ten days after the first treatment) | offspring or nymphs found (Cacopsylla pyri; third observation (30 days after the second treatment))
1 | C[C@@H]1[C@@H](c2ccc(Cl)cc2)SC(=O)N1C(=O)NC1CCCCC1 [commercial acaricide, hexythiazox] | 23.4 | – | –
2 | Abamectin | – | 22 | no offspring or nymphs were found

From patent US20080199451A1, “Composition for the Treatment and/or Prevention of Attacks by Biological Agents” (priority 2005, published 2008)
